The results in this text go back to patent US20220378923A1, “BET DEGRADER” (KYOWA KIRIN CO., LTD., priority 2019, published 2022).

For one assay, the system named is MYC mRNA expression in SU-DHL-4 cells. Kind of assay: Suppressive effect on MYC mRNA expression (Test Example 2). It counts as cell-based, human. Conditions: Homo sapiens, test compound 100 nmol/L, 6 hours, qRT-PCR corrected by ACTB, GAPDH, HPRT1, read-out: Suppression Rate of MYC mRNA Expression (%). The method, boiled down: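 SU-DHL-4 cells were treated for 6 h at 37 °C with compound (0.1% DMSO final). MYC mRNA was measured by TaqMan qRT-PCR and normalised to the geometric mean of ACTB, GAPDH and HPRT1. Suppression was calculated relative to untreated wells.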
Consider `CCC(=O)N1c2ccccc2[C@H](Nc2ccc(NC(=O)C3CN(C(=O)C4CCN(Cc5cc(O)cc(-c6c(C)noc6C)c5)CC4)C3)cc2)C[C@@H]1C` [Compound 12b, 1-(1-(3-(3,5-Dimethylisoxazol-4-yl)-5-hydroxybenzyl)piperidine-4-carbonyl)-N-(4-(((2S,4R)-2-methyl-1-propionyl-1,2,3,4-tetrahydroquinolin-4-yl)amino)phenyl)azetidine-3-carboxamide], for which the inhibition at 0.1 µM was 97.8%.
As for `CCC(=O)N1c2ccccc2[C@H](Nc2ccc(NC(=O)CCCC(=O)NC3CCN(Cc4cc(O)cc(-c5c(C)noc5C)c4)CC3)cc2)C[C@@H]1C` [Compound 12c, N^1-(1-(3-(3,5-Dimethylisoxazol-4-yl)-5-hydroxybenzyl)piperidin-4-yl)-N^5-(4-(((2S,4R)-2-methyl-1-propionyl-1,2,3,4-tetrahydroquinolin-4-yl)amino)phenyl)glutaramide], the inhibition at 0.1 µM was found to be 97.8%.
On to `CCC(=O)N1c2ccccc2[C@H](Nc2ccc(SCCNC(=O)c3ccc(C4=N[C@@H](CC(=O)OCCN(C)C)c5nnc(C)n5-c5sc(C)c(C)c54)cc3)cc2)C[C@@H]1C` [Compound 13a, 2-(Dimethylamino)ethyl 2-((S)-2,3,9-trimethyl-4-(4-((2-((4-(((2S,4R)-2-methyl-1-propionyl-1,2,3,4-tetrahydroquinolin-4-yl)amino)phenyl)thio)ethyl)carbamoyl)phenyl)-6H-thieno[3,2-f][1,2,4]triazolo[4,3-a][1,4]diazepin-6-yl)acetate], for which the inhibition at 0.1 µM came to 97.6%.
As for `CCC(=O)N1c2ccccc2[C@H](Nc2ccc(-c3cnn(CC(=O)Nc4ccc(C5=NCc6nnc(C)n6-c6sc(C)c(C)c65)cc4)c3)cc2)C[C@@H]1C` [Compound 14a, 2-(4-(4-(((2S,4R)-2-Methyl-1-propionyl-1,2,3,4-tetrahydroquinolin-4-yl)amino)phenyl)-1H-pyrazol-1-yl)-N-(4-(2,3,9-trimethyl-6H-thieno[3,2-f][1,2,4]triazolo[4,3-a][1,4]diazepin-4-yl)phenyl)acetamide], the inhibition at 0.1 µM was found to be 97.1%.
Consider `CCC(=O)N1c2ccccc2[C@H](Nc2ccc(NC(=O)COCC(=O)Nc3ccc(C4=NCc5nnc(C)n5-c5sc(C)c(C)c54)cc3)cc2)C[C@@H]1C` [Compound 14d, N-(4-(((2S,4R)-2-Methyl-1-propionyl-1,2,3,4-tetrahydroquinolin-4-yl)amino)phenyl)-2-(2-oxo-2-((4-(2,3,9-trimethyl-6H-thieno[3,2-f][1,2,4]triazolo[4,3-a][1,4]diazepin-4-yl)phenyl)amino)ethoxy)acetamide], for which the inhibition at 0.1 µM amounted to 97.4%.
For `Cc1sc2c(c1C)C(c1ccc(NC(=O)C#CCNC(=O)c3ccc(C4=NCc5nnc(C)n5-c5sc(C)c(C)c54)cc3)cc1)=NCc1nnc(C)n1-2` [Compound 14e, N-(4-Oxo-4-((4-(2,3,9-trimethyl-6H-thieno[3,2-f][1,2,4]triazolo[4,3-a][1,4]diazepin-4-yl)phenyl)amino)but-2-yn-1-yl)-4-(2,3,9-trimethyl-6H-thieno[3,2-f][1,2,4]triazolo[4,3-a][1,4]diazepin-4-yl)benzamide], the inhibition at 0.1 µM was 96.7%.
For `CCC(=O)N1c2ccccc2[C@H](Nc2ccc(NC(=O)CNC(=O)Nc3ccc(C4=NCc5nnc(C)n5-c5sc(C)c(C)c54)cc3)cc2)C[C@@H]1C` [Compound 14f, N-(4-(((2S,4R)-2-Methyl-1-propionyl-1,2,3,4-tetrahydroquinolin-4-yl)amino)phenyl)-2-(3-(4-(2,3,9-trimethyl-6H-thieno[3,2-f][1,2,4]triazolo[4,3-a][1,4]diazepin-4-yl)phenyl)ureido)acetamide], the inhibition at 0.1 µM is 97.3%.
Turning to `Cc1sc2c(c1C)C(c1ccc(C(=O)N3CCC(NC(=O)c4ccc(C5=N[C@@H](CC(=O)OC(C)(C)C)c6nnc(C)n6-c6sc(C)c(C)c65)cc4)CC3)cc1)=NCc1nnc(C)n1-2` [Compound 14p, tert-Butyl (S)-2-(2,3,9-trimethyl-4-(4-((1-(4-(2,3,9-trimethyl-6H-thieno[3,2-f][1,2,4]triazolo[4,3-a][1,4]diazepin-4-yl)benzoyl)piperidin-4-yl)carbamoyl)phenyl)-6H-thieno[3,2-f][1,2,4]triazolo[4,3-a][1,4]diazepin-6-yl)acetate], the inhibition at 0.1 µM worked out at 97.6%.
On the same count and under the same terms, the same measure for `CCC(=O)N1c2ccccc2[C@H](Nc2ccc(-c3cnn(CCNC(=O)c4ccc(Cn5c(C(=O)OCCN(C)C)cc6c5CCCC6=O)cc4)c3)cc2)C[C@@H]1C` [Compound 15d, 2-(Dimethylamino)ethyl 1-(4-((2-(4-(4-(((2S,4R)-2-methyl-1-propionyl-1,2,3,4-tetrahydroquinolin-4-yl)amino)phenyl)-1H-pyrazol-1-yl)ethyl)carbamoyl)benzyl)-4-oxo-4,5,6,7-tetrahydro-1H-indole-2-carboxylate]: 96.9%; for `CCC(=O)N1c2ccccc2[C@H](Nc2ccc(-n3cc(CNC(=O)c4ccc(Cn5c(CC)cc6c5CCCC6=O)cc4)nn3)cc2)C[C@@H]1C` [Compound 15f, 4-((2-Ethyl-4-oxo-4,5,6,7-tetrahydro-1H-indol-1-yl)methyl)-N-((1-(4-(((2S,4R)-2-methyl-1-propionyl-1,2,3,4-tetrahydroquinolin-4-yl)amino)phenyl)-1H-1,2,3-triazol-4-yl)methyl)benzamide]: 97.2%.
The same measure, in the same setting: the result for `CCC(=O)N1c2ccccc2[C@H](Nc2ccc(NC(=O)CCCC(=O)Nc3cccc(Oc4ccccc4-c4cn(C)c(=O)cc4OC)c3)cc2)C[C@@H]1C` [Compound 16m, N^1-(3-(2-(4-Methoxy-1-methyl-6-oxo-1,6-dihydropyridin-3-yl)phenoxy)phenyl)-N5-(4-(((2S,4R)-2-methyl-1-propionyl-1,2,3,4-tetrahydroquinolin-4-yl)amino)phenyl)glutaramide] reads 97.1%; that for `CCC(=O)N1c2ccccc2[C@H](Nc2ccc(NC(=O)CCCC(=O)Nc3ccc(C(=O)N4CCC(=O)Nc5ccccc54)cc3)cc2)C[C@@H]1C` [Compound 16o, N^1-(4-(((2S,4R)-2-Methyl-1-propionyl-1,2,3,4-tetrahydroquinolin-4-yl)amino)phenyl)-N5-(4-(4-oxo-2,3,4,5-tetra hydro-1H-benzo[b][1,4]diazepine-1-carbonyl)phenyl)glutaramide], 79.1%; that for `CCC(=O)N1c2ccccc2[C@H](Nc2ccc(NC(=O)CCCC(=O)Nc3ccc(Cn4cc(-c5c(C)noc5C)ccc4=O)cc3)cc2)C[C@@H]1C` [Compound 17a, N^1-(4-((5-(3,5-Dimethylisoxazol-4-yl)-2-oxopyridin-1(2H)-yl)methyl)phenyl)-N5-(4-(((2S,4R)-2-methyl-1-propionyl-1,2,3,4-tetrahydroquinolin-4-yl)amino)phenyl)glutaramide], 96.2%.

The same assay, now with this note: test compound 100 nmol/L, 6 hours, qRT-PCR corrected by ACTB, GAPDH, HPRT1.
Regarding `CCC(=O)N1c2ccccc2[C@H](Nc2ccc(C(=O)NCCCNC(=O)c3ccc(C4=N[C@@H](CC(=O)OC5CCC(O)CC5)c5nnc(C)n5-c5sc(C)c(C)c54)cc3)cc2)C[C@@H]1C` (stereo partly drawn) [Compound 13d, 4-Hydroxycyclohexyl 2-((S)-2,3,9-trimethyl-4-(4-((3-(4-(((2S,4R)-2-methyl-1-propionyl-1,2,3,4-tetrahydroquinolin-4-yl)amino)benzamide)propyl)carbamoyl)phenyl)-6H-thieno[3,2-f][1,2,4]triazolo[4,3-a][1,4]diazepin-6-yl)acetate], the “Suppression Rate of MYC mRNA Expression (%)” value (“Suppression Rate … (%)” for short) turned out to be 97.2%.
On the same count and under the same terms, the same measure for `CCC(=O)N1c2ccccc2[C@H](Nc2ccc(C(=O)NCCCNC(=O)c3ccc(C4=N[C@@H](CC(=O)OCCCOC)c5nnc(C)n5-c5sc(C)c(C)c54)cc3)cc2)C[C@@H]1C` [Compound 13h, 3-Methoxypropyl 2-((S)-2,3,9-trimethyl-4-(4-((3-(4-(((2S,4R)-2-methyl-1-propionyl-1,2,3,4-tetrahydroquinolin-4-yl)amino)benzamide)propyl)carbamoyl)phenyl)-6H-thieno[3,2-f][1,2,4]triazolo[4,3-a][1,4]diazepin-6-yl)acetate]: 97.4%; for `CCC(=O)N1c2ccccc2[C@H](Nc2ccc(NC(=O)CCCC(=O)Nc3ccc(Cn4c(C(=O)OCCN(C)C)cc5c4CCCC5=O)cc3)cc2)C[C@@H]1C` [Compound 15a, 2-(Dimethylamino)ethyl 1-(4-(5-((4-(((2S,4R)-2-methyl-1-propionyl-1,2,3,4-tetrahydroquinolin-4-yl)amino)phenyl)amino)-5-oxopentanamide)benzyl)-4-oxo-4,5,6,7-tetrahydro-1H-indole-2-carboxylate]: 97.6%; for `CCC(=O)N1c2ccccc2[C@H](Nc2ccc(NC(=O)CCCC(=O)Nc3cccc(Oc4ccc(NS(=O)(=O)CC)cc4-c4cn(C)c(=O)cc4OC)c3)cc2)C[C@@H]1C` [Compound 16j, N^1-(3-(4-(Ethylsulfonamide)-2-(4-methoxy-1-methyl-6-oxo-1,6-dihydropyridin-3-yl)phenoxy)phenyl)-N5-(4-(((2S,4R)-2-methyl-1-propionyl-1,2,3,4-tetrahydroquinolin-4-yl)amino)phenyl)glutaramide]: 92.4%.
Consider `CCC(=O)N1c2ccccc2[C@H](Nc2ccc(NC(=O)CCCC(=O)NC3CCC(Cn4cc(-c5c(C)noc5C)ccc4=O)CC3)cc2)C[C@@H]1C` (stereo partly drawn) [Compound 16p, N^1-((1r,4r)-4-((5-(3,5-Dimethylisoxazol-4-yl)-2-oxopyridin-1(2H)-yl)methyl)cyclohexyl)-N5-(4-(((2S,4R)-2-methyl-1-propionyl-1,2,3,4-tetrahydroquinolin-4-yl)amino)phenyl)glutaramide], for which the “Suppression Rate … (%)” value was 96.2%.
In the case of `CCNC(=O)C[C@@H]1N=C(c2ccc(SCCCCSc3ccc(C4=N[C@@H](CC(=O)NCC)c5nnc(C)n5-c5ccc(OC)cc54)cc3)cc2)c2cc(OC)ccc2-n2c(C)nnc21` [compound 1, 2,2′-((4S,4'S)-6,6′-((butane-1,4-diylbis(sulfanediyl))bis(4,1-phenylene))bis(8-methoxy-1-methyl-4H-benzo[f][1,2,4]triazolo[4,3-a][1,4]diazepine-6,4-diyl))bis(N-ethylacetamide), reference compound], the “Suppression Rate … (%)” value is listed as 61.7%.
